Assay results as given in PubChem BioAssay AID2060900 (Molecular Pharmacology Branch, DTP, NCI, 2025).

Test system: 521955-158-R2-J5-PDC complex spheroids, viability
Experiment: Anticancer human tumor 521955-158-R2-J5-PDC patient-derived pancreatic carcinoma cell line growth inhibition [RAS]
Conditions: for viability, T/C: stronger effect = lower value
From the text: RAS pathway inhibitors in Combinations in Complex Spheroids
A high-throughput screen of multi-cell type tumor spheroids was designed to identify active combinations of RAS pathway inhibitors and targeted small molecules. Complex spheroids include a stromal component modeled by human endothelial cells (HUVEC) and fibroblasts modeled by human mesenchymal stem cells (MSCs). The concentration ranges selected for each drug and investigational agent were based upon clinically achievable concentrations if the clinical Cmax of the agent was known.
Compounds. The drugs and investigational agents: abemaciclib (NSC768073), cobimetinib (NSC768068), divarasib (GDC6063, NSC841802), docetaxel (NSC628503), GDC-1971 (RLY-1971, NSC841576), gemcitabine (NSC613327), inavolisib (NSC800729), ipatasertib (NSC767898), KB-0742 (NSC834161), MRTX-1133 (NSC836407), osimertinib (NSC779217), RMC-4630 (NSC839698), RMC-6236 (NSC851965), RMC-6291 (NSC852671), Ro-3306 (NSC812927), sapanisertib (NSC764658), SN-38 (NSC673596), staurosporine (NSC755774), SY5609 (NSC837396), and tovorafenib (DAY101, NSC766906), were obtained from the National Cancer Institute (NCI) Developmental Therapeutics Program Chemical Repository. The FDA-approved anticancer drug set is available from the NCI Developmental Therapeutics Program. […] The stock solutions were prepared in dimethyl sulfoxide (DMSO, Sigma-Aldrich, St. Louis, MO, cat. D2650) at 800-fold the tested concentration and stored at -70 degrees C prior to their use. All drugs and investigational agents were tested over a range starting from a high concentration at or near the clinical Cmax and decreasing in half-log increments. If the clinical Cmax for an agent had not been determined, the highest concentration tested was 10 microM.
Cell Culture. All cells were maintained in an incubator at 37 degrees C and 5% CO2 with 95% humidity. The PDC lines were cultured according to standard operating procedures established by the NCI PDMR. All PDCs were thawed and cultured in Matrigel-coated flasks prepared with a working solution of 1X Ham's F-12 nutrient mix, without supplementation (Invitrogen, Waltham, MA, cat. 11765054), 100 U/mL penicillin-streptomycin (Invitrogen, cat. 15140122), and 2.5% Matrigel (Corning Inc., Corning, NY, cat. 354248) for the first three passages. The 362531-283-R-J2-PDC and 782815-120-R-J1-PDC lines were cultured in 6C/Colon 1B media, which includes advanced DMEM/F-12 (Thermo Fisher Scientific, cat. 12634028), 10 mM HEPES (Thermo Fisher Scientific, cat. 15630080), 1X GlutaMAX supplement (Thermo Fisher Scientific, cat. 35050061), 0.1 mg/mL primocin (InvivoGen, San Diego, CA, cat. ant-pm-2), 10% defined fetal bovine serum, heat inactivated (HyClone Laboratories Inc., Logan, UT, cat. SH30070.03HI), 50% L-WRN conditioned media (ATCC, cat. CRL-3276), 1.25 mM N-Acetyl-L-cysteine (Sigma-Aldrich, cat. A9165), 10 mM nicotinamide (Sigma-Aldrich, cat. N0636), 1X B-27 supplement (Thermo Fisher Scientific, cat. 17504044), 1X N-2 supplement (Thermo Fisher Scientific, cat. 17502048), 50 ng/mL human EGF (Thermo Fisher Scientific, cat. PHG0311), and 10 microM Y-27632 dihydrochloride (Tocris Bioscience, cat. 1254). The K12877-001-R-J1-PDC line was cultured in 6I media, which includes all 6C/Colon 1B media plus 10 ng/mL human FGF-10 (PeproTech, cat. 100-26), 1 ng/mL human FGF-2 (PeproTech, cat. 100-18B), 1 µM prostaglandin E2 (Tocris Bioscience, cat. 2296), […] hydrocortisone (Sigma-Aldrich, cat. H4001), and […] bovine insulin (Sigma-Aldrich, cat. I6634). The K86415-001-R-J1-PDC line was cultured in 6D media, which includes all 6C/Colon 1B media components minus the L-WRN conditioned media. The 485176-168-R4-J1-PDC was cultured in PANC media, which includes all 6C/Colon 1B media plus 100 ng/mL human FGF-10 (PeproTech, cat. 100-26), 500 nM SB-431542 (Selleckchem, cat. S1067), and 10 nM gastrin (Tocris Bioscience, cat. 3006). […]
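Also: compound exposure lasted seven days before the viability read.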
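For viability, T/C in this document: spheroids also contain HUVEC endothelial cells and mesenchymal stem cells as stroma.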

SMILES: CCC(CC)c1cc(NC2CCC(N)C2)n2nccc2n1 (stereo not drawn) + CCn1c(-c2cc(N3CCN(C)CC3)cnc2C(C)OC)c2c3cc(ccc31)-c1csc(n1)CC(NC(=O)C1CC1C)C(=O)N1CCCC(N1)C(=O)OCC(C)(C)C2
- IC50 (curve of first compound, second compound 0.000949 µM): < 0.0316 µM
- IC50 (curve of first compound, second compound 0.003 µM): 0.0316 µM
- IC50 (curve of first compound, second compound 0.00949 µM): < 0.0316 µM
- IC50 (curve of first compound, second compound 0.03 µM): < 0.0316 µM
- IC50 (curve of first compound, second compound 0.0949 µM): < 0.0316 µM
- IC50 (curve of first compound, second compound 0.3 µM): < 0.0316 µM
- viability, T/C (second compound 0.000949 µM, first compound 0.0316 µM): 39%
- viability, T/C (second compound 0.000949 µM, first compound 0.1 µM): 50.8%
- viability, T/C (second compound 0.000949 µM, first compound 0.316 µM): 56%
- viability, T/C (second compound 0.000949 µM, first compound 1 µM): 48.2%
- viability, T/C (second compound 0.000949 µM, first compound 3.16 µM): 11.8%
- viability, T/C (second compound 0.000949 µM, first compound 10 µM): 10.7%
- viability, T/C (second compound 0.003 µM, first compound 0.0316 µM): 47.5%
- viability, T/C (second compound 0.003 µM, first compound 0.1 µM): 44.3%
- viability, T/C (second compound 0.003 µM, first compound 0.316 µM): 50.6%
- viability, T/C (second compound 0.003 µM, first compound 1 µM): 43%
- viability, T/C (second compound 0.003 µM, first compound 3.16 µM): 6.49%
- viability, T/C (second compound 0.003 µM, first compound 10 µM): 10.2%
- viability, T/C (second compound 0.00949 µM, first compound 0.0316 µM): 34.5%
- viability, T/C (second compound 0.00949 µM, first compound 0.1 µM): 32.3%
- viability, T/C (second compound 0.00949 µM, first compound 0.316 µM): 43.7%
- viability, T/C (second compound 0.00949 µM, first compound 1 µM): 44.4%
- viability, T/C (second compound 0.00949 µM, first compound 3.16 µM): 9.61%
- viability, T/C (second compound 0.00949 µM, first compound 10 µM): 8.45%
- viability, T/C (second compound 0.03 µM, first compound 0.0316 µM): 23.9%
- viability, T/C (second compound 0.03 µM, first compound 0.1 µM): 23.9%
- viability, T/C (second compound 0.03 µM, first compound 0.316 µM): 24.4%
- viability, T/C (second compound 0.03 µM, first compound 1 µM): 21.2%
- viability, T/C (second compound 0.03 µM, first compound 3.16 µM): 7.51%
- viability, T/C (second compound 0.03 µM, first compound 10 µM): 7.75%
- viability, T/C (second compound 0.0949 µM, first compound 0.0316 µM): 12.3%
- viability, T/C (second compound 0.0949 µM, first compound 0.1 µM): 11.3%
- viability, T/C (second compound 0.0949 µM, first compound 0.316 µM): 17.4%
- viability, T/C (second compound 0.0949 µM, first compound 1 µM): 12.1%
- viability, T/C (second compound 0.0949 µM, first compound 3.16 µM): 9.07%
- viability, T/C (second compound 0.0949 µM, first compound 10 µM): 8.98%
- viability, T/C (second compound 0.3 µM, first compound 0.0316 µM): 10.9%
- viability, T/C (second compound 0.3 µM, first compound 0.1 µM): 10.8%
- viability, T/C (second compound 0.3 µM, first compound 0.316 µM): 11.7%
- viability, T/C (second compound 0.3 µM, first compound 1 µM): 12.6%
- viability, T/C (second compound 0.3 µM, first compound 3.16 µM): 10.9%
- viability, T/C (second compound 0.3 µM, first compound 10 µM): 8.49%

SMILES: CCN1CCN(Cc2ccc(Nc3ncc(F)c(-c4cc(F)c5nc(C)n(C(C)C)c5c4)n3)nc2)CC1
- viability, T/C (compound 0.00316 µM): 102% [middle of 4 runs]
- viability, T/C (compound 0.0316 µM): 87% [middle of 4 runs]
- viability, T/C (compound 0.1 µM): 81.5% [middle of 4 runs]
- IC50 (curve of compound): > 1 µM

SMILES: CC(Nc1ccc2c(c1)OCCn1cc(N3C(=O)OCC3C(F)F)nc1-2)C(N)=O (stereo not drawn) + C#Cc1c(F)ccc2cc(O)cc(-c3ncc4c(N5CC6CCC(C5)N6)nc(OCC56CCCN5CC(F)C6)nc4c3F)c12
- IC50 (curve of first compound, second compound 0.0316 µM): 0.0554 µM
- IC50 (curve of first compound, second compound 0.1 µM): < 0.0316 µM
- IC50 (curve of first compound, second compound 0.316 µM): < 0.0316 µM
- IC50 (curve of first compound, second compound 1 µM): < 0.0316 µM
- IC50 (curve of first compound, second compound 3.16 µM): < 0.0316 µM
- IC50 (curve of first compound, second compound 10 µM): < 0.0316 µM
- viability, T/C (second compound 0.0316 µM, first compound 0.0316 µM): 60.7%
- viability, T/C (second compound 0.0316 µM, first compound 0.1 µM): 37.6%
- viability, T/C (second compound 0.0316 µM, first compound 0.316 µM): 28.7%
- viability, T/C (second compound 0.0316 µM, first compound 1 µM): 17.1%
- viability, T/C (second compound 0.0316 µM, first compound 3.16 µM): 12.9%
- viability, T/C (second compound 0.0316 µM, first compound 10 µM): 11.9%
- viability, T/C (second compound 0.1 µM, first compound 0.0316 µM): 46.9%
- viability, T/C (second compound 0.1 µM, first compound 0.1 µM): 31.9%
- viability, T/C (second compound 0.1 µM, first compound 0.316 µM): 24.3%
- viability, T/C (second compound 0.1 µM, first compound 1 µM): 16%
- viability, T/C (second compound 0.1 µM, first compound 3.16 µM): 13.6%
- viability, T/C (second compound 0.1 µM, first compound 10 µM): 11.3%
- viability, T/C (second compound 0.316 µM, first compound 0.0316 µM): 48.1%
- viability, T/C (second compound 0.316 µM, first compound 0.1 µM): 35.1%
- viability, T/C (second compound 0.316 µM, first compound 0.316 µM): 18.7%
- viability, T/C (second compound 0.316 µM, first compound 1 µM): 16%
- viability, T/C (second compound 0.316 µM, first compound 3.16 µM): 10.8%
- viability, T/C (second compound 0.316 µM, first compound 10 µM): 10.2%
- viability, T/C (second compound 1 µM, first compound 0.0316 µM): 36%
- viability, T/C (second compound 1 µM, first compound 0.1 µM): 28.7%
- viability, T/C (second compound 1 µM, first compound 0.316 µM): 18.2%
- viability, T/C (second compound 1 µM, first compound 1 µM): 16.7%
- viability, T/C (second compound 1 µM, first compound 3.16 µM): 11.7%
- viability, T/C (second compound 1 µM, first compound 10 µM): 8.56%
- viability, T/C (second compound 3.16 µM, first compound 0.0316 µM): 32.7%
- viability, T/C (second compound 3.16 µM, first compound 0.1 µM): 25.3%
- viability, T/C (second compound 3.16 µM, first compound 0.316 µM): 16.3%
- viability, T/C (second compound 3.16 µM, first compound 1 µM): 11%
- viability, T/C (second compound 3.16 µM, first compound 3.16 µM): 8.73%
- viability, T/C (second compound 3.16 µM, first compound 10 µM): 6.29%
- viability, T/C (second compound 10 µM, first compound 0.0316 µM): 26.5%
- viability, T/C (second compound 10 µM, first compound 0.1 µM): 16.8%
- viability, T/C (second compound 10 µM, first compound 0.316 µM): 8.86%
- viability, T/C (second compound 10 µM, first compound 1 µM): 4.7%
- viability, T/C (second compound 10 µM, first compound 3.16 µM): 2.91%
- viability, T/C (second compound 10 µM, first compound 10 µM): 1.54%
